Structures can show the parent of a compound that is named as a salt.
Biological target: T1, AR (Homo sapiens, UniProt P10275)
T1 construct: endogenous in cells; host or cells: VCaP cells
T1 sequence (P10275 1-920): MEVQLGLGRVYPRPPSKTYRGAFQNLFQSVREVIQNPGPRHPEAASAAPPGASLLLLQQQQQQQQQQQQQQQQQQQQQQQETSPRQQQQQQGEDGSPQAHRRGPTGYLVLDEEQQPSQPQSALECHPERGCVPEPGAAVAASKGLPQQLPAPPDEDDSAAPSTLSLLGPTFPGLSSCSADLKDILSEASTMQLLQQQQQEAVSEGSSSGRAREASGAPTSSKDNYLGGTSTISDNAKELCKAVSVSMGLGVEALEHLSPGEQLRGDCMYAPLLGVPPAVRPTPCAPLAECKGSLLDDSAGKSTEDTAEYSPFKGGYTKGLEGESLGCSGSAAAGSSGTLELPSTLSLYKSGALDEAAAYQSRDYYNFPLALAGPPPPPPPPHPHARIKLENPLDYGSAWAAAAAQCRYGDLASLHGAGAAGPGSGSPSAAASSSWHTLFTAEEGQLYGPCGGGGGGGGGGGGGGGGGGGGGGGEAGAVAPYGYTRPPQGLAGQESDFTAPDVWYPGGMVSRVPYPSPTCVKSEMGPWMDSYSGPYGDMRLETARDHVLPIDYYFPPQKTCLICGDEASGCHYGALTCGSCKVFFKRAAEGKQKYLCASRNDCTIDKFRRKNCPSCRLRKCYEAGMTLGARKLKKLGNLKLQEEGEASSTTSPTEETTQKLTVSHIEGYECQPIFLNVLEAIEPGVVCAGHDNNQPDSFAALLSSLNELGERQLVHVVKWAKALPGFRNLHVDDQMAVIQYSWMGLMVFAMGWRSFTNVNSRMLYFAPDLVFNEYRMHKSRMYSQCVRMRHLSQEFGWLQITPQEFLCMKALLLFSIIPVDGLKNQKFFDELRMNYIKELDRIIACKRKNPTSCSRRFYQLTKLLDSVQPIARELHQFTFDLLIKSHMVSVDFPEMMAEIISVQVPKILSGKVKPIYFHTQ
Experiment: VCAP AR Degradation Assay
Assay type: cell-based
Settings: VCaP cells, 24 h; for DC50: AR ELISA, concentration when AR level = 50% of DMSO control; for Ymin: lowest AR level normalized to DMSO control
Procedure: VCAP AR Degradation Assay. Test compounds were pre-dispensed into a Corning CellBind 96-well clear bottom plate (Cat #3300) using an acoustic dispenser to make a 10-point concentration series at 1:3 dilution for each compound. The final top concentration of each compound was 5 μM. DMSO at a final concentration of 0.1% was used as a control. VCaP cells cultured in DMEM with 8% fetal bovine serum (FBS) were seeded at 50K cells per well in a 200 μL volume into the compound plate and incubated at 37° C. in a C02 incubator for 24 h. The medium was carefully removed from the cells and the plate was placed on ice. One hundred μL of ice-cold 1× cell lysis buffer from Cell Signaling Technologies (Cat #9803) was added to each well of the cells and the plate was incubated at 4° C. on a shaker for 1 h. Fifteen μL of cell lysate was used for AR ELISA detection using a PathScan Total Sandwich AR ELISA kit (Cell Signaling Technology, Cat #12580). AR levels in compound-treated wells were normalized to that of DMSO control and expressed as percent of control (PoC) (y). A Four Parameter Logistic Model (Sigmoidal Dose-Response Model) was used to determine the compound's DC50, and EC50, using the following equation: […]
The lowest measured AR level normalized to DMSO control in response to compound treatment, termed Y value, was used to characterize the compound-mediated AR degradation efficiency.

| SMILES | DC50 | Ymin (class symbols) | Ymin (given as numbers) |
| --- | --- | --- | --- |
| C[C@@H]1CN(CCC[C@H]2CC[C@H](N3C(=S)N(c4ccc(C#N)c(Cl)c4)C(=O)C3(C)C)CC2)C[C@H](C)N1CC(=O)Nc1ccc(C2CCC(=O)NC2=O)cc1 (stereo partly drawn) [Cmpd 17, 2-((2S,6R)-4-(3-(trans-4-(3-(3-Chloro-4-cyanophenyl)-5,5-dimethyl-4-oxo-2-thioxoimidazolidin-1-yl)cyclohexyl)propyl)-2,6-dimethylpiperazin-1-yl)-N-(4-(2,6-dioxopiperidin-3-yl)phenyl)acetamide hydrochloride] | 5 to 15 nM | *** (30%<Y<80%) | – |
| CC1(C)C(=O)N(c2ccc(C#N)c(C(F)(F)F)c2)C(=S)N1[C@H]1CC[C@H](CCCN2CCN(CC(=O)Nc3ccc(C4CCC(=O)NC4=O)cc3)[C@@H](C(F)(F)F)C2)CC1 (stereo partly drawn) [Cmpd 36, 2-((R)-4-(3-((trans)-4-(3-(4-Cyano-3-(trifluoromethyl)phenyl)-5,5-dimethyl-4-oxo-2-thioxoimidazolidin-1-yl)cyclohexyl)propyl)-2-(trifluoromethyl)piperazin-1-yl)-N-(4-(2,6-dioxopiperidin-3-yl)phenyl)acetamide] | 15 to 100 nM | – | 24 % of DMSO control |
| C[C@@H]1CN(CCO[C@H]2CC[C@H](N3C(=S)N(c4ccc(C#N)c(Cl)c4)C(=O)C3(C)C)CC2)C[C@H](C)N1CC(=O)Nc1ccc(C2CCC(=O)NC2=O)cc1 (stereo partly drawn) [Cmpd 4, 2-((2R,6S)-4-(2-((trans-4-(3-(3-Chloro-4-cyanophenyl)-5,5-dimethyl-4-oxo-2-thioxoimidazolidin-1-yl)cyclohexyl)oxy)ethyl)-2,6-dimethylpiperazin-1-yl)-N-(4-(2,6-dioxopiperidin-3-yl)phenyl)acetamide hydrochloride] | ≤ 5 nM | *** (30%<Y<80%) | – |
| C[C@@H]1C[C@@H](CCO[C@H]2CC[C@H](N3C(=S)N(c4cnc(C#N)c(C(F)(F)F)c4)C(=O)C3(C)C)CC2)C[C@H](C)N1CC(=O)Nc1ccc(C2CCC(=O)NC2=O)cc1 (stereo partly drawn) [Cmpd 29, 2-((2R,4s,6S)-4-(2-(((trans)-4-(3-(6-Cyano-5-(trifluoromethyl)pyridin-3-yl)-5,5-dimethyl-4-oxo-2-thioxoimidazolidin-1-yl)cyclohexyl)oxy)ethyl)-2,6-dimethylpiperidin-1-yl)-N-(4-(2,6-dioxopiperidin-3-yl)phenyl)acetamide] | ≤ 5 nM | – | 15 % of DMSO control |
| C[C@@H]1C[C@H](OCCO[C@H]2CC[C@H](N3C(=S)N(c4cnc(C#N)c(C(F)(F)F)c4)C(=O)C3(C)C)CC2)C[C@H](C)N1CC(=O)Nc1ccc(C2CCC(=O)NC2=O)cc1 (stereo partly drawn) [Cmpd 41, 2-((2R,4r,6S)-4-(2-(((trans)-4-(3-(6-Cyano-5-(trifluoromethyl)pyridin-3-yl)-5,5-dimethyl-4-oxo-2-thioxoimidazolidin-1-yl)cyclohexyl)oxy)ethoxy)-2,6-dimethylpiperidin-1-yl)-N-(4-(2,6-dioxopiperidin-3-yl)phenyl)acetamide] | ≤ 5 nM | – | 17 % of DMSO control |
| C[C@@H]1C[C@H](OCC[C@H]2CC[C@H](N3C(=S)N(c4ccc(C#N)c(C(F)(F)F)c4)C(=O)C3(C)C)CC2)C[C@H](C)N1CC(=O)Nc1ccc(C2CCC(=O)NC2=O)cc1 (stereo partly drawn) [Cmpd 40, 2-((2R,4r,6S)-4-(2-((trans)-4-(3-(4-Cyano-3-(trifluoromethyl)phenyl)-5,5-dimethyl-4-oxo-2-thioxoimidazolidin-1-yl)cyclohexyl)ethoxy)-2,6-dimethylpiperidin-1-yl)-N-(4-(2,6-dioxopiperidin-3-yl)phenyl)acetamide] | 5 to 15 nM | – | 21 % of DMSO control |
| C[C@@H]1C[C@H](OCCC[C@H]2CC[C@H](N3C(=S)N(c4ccc(C#N)c(C(F)(F)F)c4)C(=O)C3(C)C)CC2)C[C@H](C)N1CC(=O)Nc1ccc(C2CCC(=O)NC2=O)cc1 (stereo partly drawn) [Cmpd 37, 2-((2R,4r,6S)-4-(3-((trans)-4-(3-(4-Cyano-3-(trifluoromethyl)phenyl)-5,5-dimethyl-4-oxo-2-thioxoimidazolidin-1-yl)cyclohexyl)propoxy)-2,6-dimethylpiperidin-1-yl)-N-(4-(2,6-dioxopiperidin-3-yl)phenyl)acetamide] | 15 to 100 nM | – | 19 % of DMSO control |
| C[C@@H]1CN(CCC[C@H]2CC[C@H](N3C(=S)N(c4cnc(C#N)c(Cl)c4)C(=O)C3(C)C)CC2)C[C@H](C)N1CC(=O)Nc1ccc(C2CCC(=O)NC2=O)cc1 (stereo partly drawn) [Cmpd 16, 2-((2R,6S)-4-(3-(trans-4-(3-(5-Chloro-6-cyanopyridin-3-yl)-5,5-dimethyl-4-oxo-2-thioxoimidazolidin-1-yl)cyclohexyl)propyl)-2,6-dimethylpiperazin-1-yl)-N-(4-(2,6-dioxopiperidin-3-yl)phenyl)acetamide hydrochloride] | 5 to 15 nM | *** (30%<Y<80%) | – |
| C[C@@H]1C[C@@H](CCO[C@H]2CC[C@H](N3C(=S)N(c4ccc(C#N)c(C(F)(F)F)c4)C(=O)C3(C)C)CC2)C[C@H](C)N1CC(=O)Nc1ccc(C2CCC(=O)NC2=O)cc1 (stereo partly drawn) [Cmpd 21, 2-((2R,4s,6S)-4-(2-((trans-4-(3-(4-Cyano-3-(trifluoromethyl)phenyl)-5,5-dimethyl-4-oxo-2-thioxoimidazolidin-1-yl)cyclohexyl)oxy)ethyl)-2,6-dimethylpiperidin-1-yl)-N-(4-(2,6-dioxopiperidin-3-yl)phenyl)acetamide hydrochloride] | ≤ 5 nM | * (0<Y≤20%) | – |
| CC1(C)C(=O)N(c2cnc(C#N)c(C(F)(F)F)c2)C(=S)N1[C@H]1CC[C@H](CCCN2CCN(CC(=O)Nc3ccc(C4CCC(=O)NC4=O)cc3)[C@@H](C(F)(F)F)C2)CC1 (stereo partly drawn) [Cmpd 33, 2-((R)-4-(3-((trans)-4-(3-(6-Cyano-5-(trifluoromethyl)pyridin-3-yl)-5,5-dimethyl-4-oxo-2-thioxoimidazolidin-1-yl)cyclohexyl)propyl)-2-(trifluoromethyl)piperazin-1-yl)-N-(4-(2,6-dioxopiperidin-3-yl)phenyl)acetamide] | 5 to 15 nM | – | 17 % of DMSO control |
| C[C@@H]1CN(CCO[C@H]2CC[C@H](N3C(=S)N(c4ccc(C#N)c(C(F)(F)F)c4)C(=O)C3(C)C)CC2)C[C@H](C)N1CC(=O)Nc1ccc(C2(C)CCC(=O)NC2=O)cc1 (single isomer, unassigned) [Cmpd 9, hydrochloride] | 100 to 10000 nM | *** (30%<Y<80%) | – |
| C[C@@H]1CN(CCO[C@H]2CC[C@H](N3C(=S)N(c4ccc(C#N)c(C(F)(F)F)c4)C(=O)C3(C)C)CC2)C[C@H](C)N1CCC(=O)Nc1ccc(C2CCC(=O)NC2=O)cc1 (stereo partly drawn) [Cmpd 5, 3-((2R,6S)-4-(2-((trans-4-(3-(4-Cyano-3-(trifluoromethyl)phenyl)-5,5-dimethyl-4-oxo-2-thioxoimidazolidin-1-yl)cyclohexyl)oxy)ethyl)-2,6-dimethylpiperazin-1-yl)-N-(4-(2,6-dioxopiperidin-3-yl)phenyl)propanamide] | 5 to 15 nM | *** (30%<Y<80%) | – |
| CC1(C)C(=O)N(c2ccc(C#N)c(C(F)(F)F)c2)C(=S)N1[C@H]1CC[C@H](OCCCN2CCN(CC(=O)Nc3cccc(C4CCC(=O)NC4=O)c3)[C@@H](C(F)(F)F)C2)CC1 (stereo partly drawn) [Cmpd 31, 2-((R)-4-(3-(((trans)-4-(3-(4-Cyano-3-(trifluoromethyl)phenyl)-5,5-dimethyl-4-oxo-2-thioxoimidazolidin-1-yl)cyclohexyl)oxy)propyl)-2-(trifluoromethyl)piperazin-1-yl)-N-(3-(2,6-dioxopiperidin-3-yl)phenyl)acetamide] | ≤ 5 nM | – | 21 % of DMSO control |
